Experiments:
Assay type in all cases: biochemical
B-Raf = molecular target: T1, B-Raf (Homo sapiens, UniProt P15056); experiment: AlphaScreen kinase assay, B-Raf; settings: read-out: IC50, activity toward kinase B-Raf
T1 construct: purchased Upstate Biotechnology

B-Raf V600E = molecular target: T2, B-Raf V600E (Homo sapiens, UniProt P15056, V600E); experiment: AlphaScreen kinase assay, B-Raf V600E; settings: read-out: IC50, activity toward kinase B-Raf V600E
T2 construct: P4254. pFastBacBD-CDC37 BRAF D437-K722-X, V600E; His6 with pFastBac HT leader (TEV site) (N); made in house; host or cells: Sf9 (baculovirus; chaperone CDC37 co-expressed)

EphB2 = molecular target: T3, EphB2 (Homo sapiens, UniProt P29323); experiment: Z'-Lyte FRET kinase assay (Invitrogen), EphB2; settings: read-out: IC50, activity toward kinase EphB2
T3 construct: purchased Invitrogen (assay run by Invitrogen)
T3 sequence (P29323 19-1055): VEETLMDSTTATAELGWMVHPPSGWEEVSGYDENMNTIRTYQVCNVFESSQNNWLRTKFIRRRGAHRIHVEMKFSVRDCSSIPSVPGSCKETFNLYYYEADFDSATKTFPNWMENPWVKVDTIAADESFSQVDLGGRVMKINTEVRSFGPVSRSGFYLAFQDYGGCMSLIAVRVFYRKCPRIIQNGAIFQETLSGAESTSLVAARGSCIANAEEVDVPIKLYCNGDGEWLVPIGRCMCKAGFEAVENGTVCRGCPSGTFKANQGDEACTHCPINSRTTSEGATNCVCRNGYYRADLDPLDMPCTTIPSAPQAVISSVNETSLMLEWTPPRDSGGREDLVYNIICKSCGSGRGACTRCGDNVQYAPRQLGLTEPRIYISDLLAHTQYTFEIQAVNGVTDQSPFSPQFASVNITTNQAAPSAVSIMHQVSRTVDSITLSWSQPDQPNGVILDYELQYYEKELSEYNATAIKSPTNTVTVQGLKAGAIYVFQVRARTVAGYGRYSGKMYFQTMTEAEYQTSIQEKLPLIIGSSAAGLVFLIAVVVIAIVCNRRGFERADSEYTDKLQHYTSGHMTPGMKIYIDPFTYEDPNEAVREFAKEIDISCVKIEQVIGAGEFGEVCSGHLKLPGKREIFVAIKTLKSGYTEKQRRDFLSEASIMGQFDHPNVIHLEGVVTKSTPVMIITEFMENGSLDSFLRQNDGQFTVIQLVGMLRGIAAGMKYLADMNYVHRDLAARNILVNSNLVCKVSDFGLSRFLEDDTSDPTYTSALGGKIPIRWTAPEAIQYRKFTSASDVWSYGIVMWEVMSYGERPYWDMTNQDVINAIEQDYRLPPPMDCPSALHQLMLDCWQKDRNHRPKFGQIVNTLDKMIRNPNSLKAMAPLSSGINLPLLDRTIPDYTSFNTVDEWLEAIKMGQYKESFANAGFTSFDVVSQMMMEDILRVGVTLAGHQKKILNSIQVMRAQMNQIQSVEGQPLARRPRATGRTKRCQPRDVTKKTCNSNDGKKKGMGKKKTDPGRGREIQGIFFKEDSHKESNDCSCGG
Method in brief: (§1)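 Under a compound concentration curve, the kinase acted on a dual-labelled peptide at 2 μM with ATP at 10 μM for one hour at ambient temperature (buffer pH 7.5, 1% DMSO). Phosphorylation extent came from the emission ratio after protease development.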

FGFR1 = molecular target: T4, FGFR1 (Homo sapiens, UniProt P11362, C488A/C584S); experiment: AlphaScreen kinase assay, FGFR1; settings: read-out: IC50, activity toward kinase FGFR
T4 construct: P1351.pET N6 BI-PTP FGFR A458-E765-X C488A, C584S; made in house; host or cells: E. coli (PTP1B co-expressed)
From the text: AlphaScreen assay was used to screen additional kinases. The assay is similarly dependent on the phosphorylation of a peptide substrate. In this assay, an antibody that recognizes phosphorylated substrate is bound to an acceptor bead. The peptide substrate is attached to biotin, which binds to a donor head that contains streptavidin. Thus phosphorylated substrate is bound by antibody and streptavidin, bringing the donor and acceptor heads into close proximity when kinase is not inhibited. The donor produces singlet oxygen which results in emission from the acceptor when they are in close proximity. Conversely, when kinase is inhibited, the donor and acceptor beads are not associated and the emission from the acceptor is reduced.
AlphaScreen assays were done using compounds dissolved in DMSO to a concentration of 20 mM. The compounds were diluted accordingly to the desired final concentrations in each sample well, using 1:3 serial dilution for a total of 8 concentration points. Plates were prepared such that each kinase reaction is 20 μl in 1× kinase buffer, 5% DMSO and 10 μM ATP. After incubation of the kinase reaction for 1 hour at room temperature, 5 μl of donor beads in stop buffer (50 mM EDTA in 1× kinase buffer) was added, the sample was mixed and incubated for 20 minutes at room temperature before adding 5 μl of acceptor beads in stop buffer. The samples were incubated for 60 minutes at room temperature and the signal per well was read on AlphaQuest reader.

Fms = molecular target: T5, Fms (Homo sapiens, UniProt P07333); experiment: AlphaScreen kinase assay, Fms; settings: read-out: IC50, activity toward kinase Fms
T5 construct: purchased Upstate Biotechnology

Kit = molecular target: T6, Kit (Homo sapiens, UniProt P10721); experiment: AlphaScreen kinase assay, Kit; settings: read-out: IC50, activity toward kinase Kit
T6 construct: P1332.N6 BI PTP KIT M552-K948-X COD; His6 (N); made in house; host or cells: E. coli (PTP1B co-expressed)

Yes = molecular target: T7, Yes (Homo sapiens, UniProt P07947); experiment: Z'-Lyte FRET kinase assay (Invitrogen), Yes; settings: read-out: IC50, activity toward kinase Yes
T7 construct: purchased Invitrogen (Carlsbad, Calif.), screening service
Method in brief: as §1

Measured: IC50

T2 sequence (P15056 with tags, fused parts or gaps V600E): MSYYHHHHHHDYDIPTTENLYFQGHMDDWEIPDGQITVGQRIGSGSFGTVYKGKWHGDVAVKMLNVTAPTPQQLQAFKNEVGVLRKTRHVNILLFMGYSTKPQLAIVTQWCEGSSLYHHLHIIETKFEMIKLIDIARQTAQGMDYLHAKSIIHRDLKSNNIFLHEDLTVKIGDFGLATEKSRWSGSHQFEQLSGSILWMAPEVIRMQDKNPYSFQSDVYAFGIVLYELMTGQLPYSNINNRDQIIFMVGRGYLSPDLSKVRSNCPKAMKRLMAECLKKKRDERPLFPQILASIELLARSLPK
T5 sequence (P07333 20-972): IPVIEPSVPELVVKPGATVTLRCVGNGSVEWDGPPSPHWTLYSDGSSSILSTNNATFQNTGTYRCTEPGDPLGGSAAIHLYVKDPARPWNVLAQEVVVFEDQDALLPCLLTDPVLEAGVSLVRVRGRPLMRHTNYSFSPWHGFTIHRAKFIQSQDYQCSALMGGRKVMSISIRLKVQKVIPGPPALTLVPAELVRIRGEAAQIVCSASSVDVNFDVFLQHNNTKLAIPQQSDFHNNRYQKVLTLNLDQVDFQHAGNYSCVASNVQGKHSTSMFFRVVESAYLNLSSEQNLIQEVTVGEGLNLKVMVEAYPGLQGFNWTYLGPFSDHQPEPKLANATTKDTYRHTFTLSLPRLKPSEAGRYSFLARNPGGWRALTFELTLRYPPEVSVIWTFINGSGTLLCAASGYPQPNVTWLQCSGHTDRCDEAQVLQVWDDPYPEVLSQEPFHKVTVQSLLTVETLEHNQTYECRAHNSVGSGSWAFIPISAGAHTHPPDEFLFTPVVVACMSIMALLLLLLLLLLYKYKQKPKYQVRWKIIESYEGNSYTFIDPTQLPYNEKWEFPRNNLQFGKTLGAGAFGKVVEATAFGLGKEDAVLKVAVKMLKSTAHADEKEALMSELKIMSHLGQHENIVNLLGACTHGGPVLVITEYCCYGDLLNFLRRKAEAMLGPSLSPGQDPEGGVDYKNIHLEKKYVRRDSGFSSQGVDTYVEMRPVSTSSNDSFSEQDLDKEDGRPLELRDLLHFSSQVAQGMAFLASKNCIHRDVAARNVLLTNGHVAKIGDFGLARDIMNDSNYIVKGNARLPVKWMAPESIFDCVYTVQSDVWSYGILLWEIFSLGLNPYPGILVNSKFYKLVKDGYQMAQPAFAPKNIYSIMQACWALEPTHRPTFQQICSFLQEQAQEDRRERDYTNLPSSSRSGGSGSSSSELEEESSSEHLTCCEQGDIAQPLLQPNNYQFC
T4 sequence (P11362 458-765 C488A/C584S): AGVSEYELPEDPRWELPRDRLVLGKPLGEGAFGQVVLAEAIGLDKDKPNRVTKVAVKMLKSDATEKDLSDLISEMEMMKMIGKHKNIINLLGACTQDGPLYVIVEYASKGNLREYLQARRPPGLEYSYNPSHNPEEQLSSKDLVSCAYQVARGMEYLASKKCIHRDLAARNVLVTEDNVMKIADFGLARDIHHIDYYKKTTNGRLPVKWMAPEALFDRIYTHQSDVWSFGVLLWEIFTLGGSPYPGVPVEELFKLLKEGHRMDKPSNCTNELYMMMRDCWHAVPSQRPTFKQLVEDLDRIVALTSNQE
T1 sequence (P15056 whole entry): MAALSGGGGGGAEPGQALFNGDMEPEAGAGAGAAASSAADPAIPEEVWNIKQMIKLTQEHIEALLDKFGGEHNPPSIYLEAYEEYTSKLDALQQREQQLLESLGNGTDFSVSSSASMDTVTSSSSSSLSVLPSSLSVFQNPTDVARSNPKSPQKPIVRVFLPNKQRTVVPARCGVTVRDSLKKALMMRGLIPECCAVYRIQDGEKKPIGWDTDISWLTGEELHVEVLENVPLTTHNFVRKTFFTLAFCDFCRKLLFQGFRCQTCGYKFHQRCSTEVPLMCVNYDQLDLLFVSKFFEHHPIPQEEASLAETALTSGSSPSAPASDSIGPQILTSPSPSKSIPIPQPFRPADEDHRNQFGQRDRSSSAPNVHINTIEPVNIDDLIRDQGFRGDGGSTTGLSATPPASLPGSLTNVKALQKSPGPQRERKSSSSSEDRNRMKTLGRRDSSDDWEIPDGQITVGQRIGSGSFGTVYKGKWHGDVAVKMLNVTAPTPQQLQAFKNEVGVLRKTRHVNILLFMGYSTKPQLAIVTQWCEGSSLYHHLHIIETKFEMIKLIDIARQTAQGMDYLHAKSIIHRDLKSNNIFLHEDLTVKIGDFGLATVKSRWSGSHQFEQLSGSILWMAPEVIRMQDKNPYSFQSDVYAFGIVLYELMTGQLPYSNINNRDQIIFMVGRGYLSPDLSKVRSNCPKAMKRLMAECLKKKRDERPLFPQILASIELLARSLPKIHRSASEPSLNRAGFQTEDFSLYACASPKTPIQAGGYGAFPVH
T6 sequence (P10721 with tags, fused parts or gaps): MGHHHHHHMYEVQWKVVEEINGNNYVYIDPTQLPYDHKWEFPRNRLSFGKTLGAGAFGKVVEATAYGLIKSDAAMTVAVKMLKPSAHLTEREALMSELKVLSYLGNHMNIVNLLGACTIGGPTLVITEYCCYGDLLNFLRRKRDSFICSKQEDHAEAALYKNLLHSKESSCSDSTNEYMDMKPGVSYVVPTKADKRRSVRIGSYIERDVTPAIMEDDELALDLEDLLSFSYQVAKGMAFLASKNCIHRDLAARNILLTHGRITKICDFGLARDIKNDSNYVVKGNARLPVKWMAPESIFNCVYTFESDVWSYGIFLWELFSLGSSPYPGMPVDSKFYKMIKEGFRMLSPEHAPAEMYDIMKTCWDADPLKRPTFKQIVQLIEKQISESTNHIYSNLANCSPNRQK
T7 sequence (P07947 whole entry): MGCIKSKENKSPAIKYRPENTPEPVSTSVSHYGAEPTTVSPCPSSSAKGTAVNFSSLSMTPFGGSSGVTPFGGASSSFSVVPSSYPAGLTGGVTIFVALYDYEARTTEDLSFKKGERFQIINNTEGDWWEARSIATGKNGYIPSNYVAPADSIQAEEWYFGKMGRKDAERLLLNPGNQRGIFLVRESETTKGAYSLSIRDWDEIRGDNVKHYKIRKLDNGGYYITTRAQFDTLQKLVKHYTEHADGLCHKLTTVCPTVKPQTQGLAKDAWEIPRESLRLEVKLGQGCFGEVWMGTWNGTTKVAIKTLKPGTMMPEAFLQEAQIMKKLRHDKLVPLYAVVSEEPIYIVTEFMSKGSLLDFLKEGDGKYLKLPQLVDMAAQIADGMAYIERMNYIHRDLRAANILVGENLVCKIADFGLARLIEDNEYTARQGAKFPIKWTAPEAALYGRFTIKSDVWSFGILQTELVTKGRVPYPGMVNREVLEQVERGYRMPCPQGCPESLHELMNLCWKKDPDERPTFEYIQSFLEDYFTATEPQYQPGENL

CC(=O)Nc1cccc(-c2cnc3[nH]cc(C(=O)c4cc(O)ccc4F)c3c2)c1 [Compound P-0001]
not listed: Yes
≤ 10 µM: all other assays above

CC(=O)Nc1cccc(-c2cnc3[nH]cc(C(=O)c4cccc(O)c4F)c3c2)c1 [Compound P-0035, N-{3-[3-(2-Fluoro-3-hydroxy-benzoyl)-1H-pyrrolo[2,3-b]pyridin-5-yl]-phenyl}-acetamide]
not listed: Yes
≤ 10 µM: all other assays above

O=C(c1cccc(O)c1)c1c[nH]c2ncc(Nc3ccccc3)cc12 [Compound P-0025]
not listed: Kit | Yes
≤ 10 µM: all other assays above

Nc1cccc(-c2cnc3[nH]cc(C(=O)c4cccc(O)c4)c3c2)c1 [Compound P-0003]
not listed: Yes
≤ 10 µM: all other assays above

O=C(c1cc(O)ccc1F)c1c[nH]c2ncc(-c3cccs3)cc12 [Compound P-0032]
not listed: Yes
≤ 10 µM: all other assays above

Oc1ccc(F)c(C(O)c2c[nH]c3ncc(-c4cccnc4)cc23)c1F (stereo not shown) [Compound P-0009, 2,4-difluoro-3-[hydroxy-(5-pyridin-3-yl-1H-pyrrolo[2,3-b]pyridin-3-yl)-methyl]-phenol]
not listed: Yes
≤ 10 µM: all other assays above

Cc1c(O)cccc1C(=O)c1c[nH]c2ncc(-c3cccs3)cc12 [Compound P-0114, (3-Hydroxy-2-methyl-phenyl)-(5-thiophen-2-yl-1H-pyrrolo[2,3b]pyridin-3-yl)-methanone]
not listed: Yes
≤ 10 µM: all other assays above

Cc1c(O)cccc1C(=O)c1c[nH]c2ncc(-c3cccnc3)cc12 [Compound P-0006, (3-Hydroxy-2-methyl-phenyl)-(5-pyridin-3-yl-1H-pyrrolo[2,3b]pyridin-3-yl)-methanone]
not listed: Yes
≤ 10 µM: all other assays above

Cn1cc(C(F)(F)F)c(-c2ccc(S(=O)(=O)NCc3c[nH]c4ncccc34)s2)n1 [Compound P-0041]
not listed: Fms | Yes
≤ 10 µM: all other assays above

CN(C)S(=O)(=O)Nc1ccc(F)c(Cc2c[nH]c3ncc(-c4cccnc4)cc23)c1F [Compound P-0166]
not listed: EphB2
≤ 10 µM: all other assays above

From patent US8415469B2, “Compounds and methods for kinase modulation, and indications therefor” (Plexxikon Inc., priority 2005, dated 2013)
